Test results taken from PubChem BioAssay (NCI).
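How tested: cells in 96-well plates exposed to compound for 48 hours at five concentrations. GI50 marks 50% less growth. TGI denotes the concentration required for complete inhibition of growth.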

How the values were obtained:
Assay in all cases: DTP human tumour cell line panel, 48 h
DU-145 prostate = tested on: DU-145 prostate
NCI-H522 lung = tested on: NCI-H522 lung
SF-268 CNS = tested on: SF-268 CNS
NCI-H460 lung = tested on: NCI-H460 lung
SK-MEL-28 melanoma = tested on: SK-MEL-28 melanoma
786-0 renal = tested on: 786-0 renal
OVCAR-5 ovarian = tested on: OVCAR-5 ovarian
SK-OV-3 ovarian = tested on: SK-OV-3 ovarian
CAKI-1 renal = tested on: CAKI-1 renal
A498 renal = tested on: A498 renal
UO-31 renal = tested on: UO-31 renal
RXF 393 renal = tested on: RXF 393 renal
NCI-H23 lung = tested on: NCI-H23 lung
HOP-92 NSCLC = tested on: HOP-92 NSCLC
MALME-3M melanoma = tested on: MALME-3M melanoma
CCRF-CEM leukemia = tested on: CCRF-CEM leukemia
SNB-75 CNS = tested on: SNB-75 CNS
PC-3 prostate = tested on: PC-3 prostate
SF-539 CNS = tested on: SF-539 CNS
HT29 colon = tested on: HT29 colon
NCI/ADR-RES ovarian = tested on: NCI/ADR-RES ovarian
IGROV1 ovarian = tested on: IGROV1 ovarian
HCT-15 colon = tested on: HCT-15 colon
M14 melanoma = tested on: M14 melanoma
UACC-62 melanoma = tested on: UACC-62 melanoma
RPMI-8226 leukemia = tested on: RPMI-8226 leukemia
ACHN renal = tested on: ACHN renal
TK-10 renal = tested on: TK-10 renal

**Q.** How did the GI50 (DU-145 prostate) turn out when `NC(N)=Nc1ccc(Oc2cccc(Nc3ccc(Br)c(C(F)(F)F)c3)c2)cc1` was run?
**A.** 1800 nM

**Q.** What about the TGI (DU-145 prostate) of the same molecule?
**A.** 3.31 µM

**Q.** And the GI50 (NCI-H522 lung)?
**A.** 1600 nM

**Q.** And the TGI (NCI-H522 lung)?
**A.** 3.35 µM

**Q.** And the GI50 (SF-268 CNS)?
**A.** 1680 nM

**Q.** And the TGI (SF-268 CNS)?
**A.** 3.45 µM

**Q.** And the GI50 (NCI-H460 lung)?
**A.** 1870 nM

**Q.** And the TGI (NCI-H460 lung)?
**A.** 3.51 µM

**Q.** And the GI50 (SK-MEL-28 melanoma)?
**A.** 1770 nM

**Q.** What about the TGI (SK-MEL-28 melanoma) of the same molecule?
**A.** 3.22 µM

**Q.** What about the GI50 (786-0 renal) of the same molecule?
**A.** 1600 nM

**Q.** What about the TGI (786-0 renal) of the same molecule?
**A.** 3.12 µM

**Q.** And the GI50 (OVCAR-5 ovarian)?
**A.** 1630 nM

**Q.** What about the TGI (OVCAR-5 ovarian) of the same molecule?
**A.** 3.07 µM

**Q.** And the GI50 (SK-OV-3 ovarian)?
**A.** 2110 nM

**Q.** What about the TGI (SK-OV-3 ovarian) of the same molecule?
**A.** 5.12 µM

**Q.** And the GI50 (CAKI-1 renal)?
**A.** 1600 nM

**Q.** What about the TGI (CAKI-1 renal) of the same molecule?
**A.** 3.14 µM

**Q.** What about the GI50 (A498 renal) of the same molecule?
**A.** 1490 nM

**Q.** What about the TGI (A498 renal) of the same molecule?
**A.** 2910 nM

**Q.** And the GI50 (UO-31 renal)?
**A.** 3.08 µM

**Q.** What about the TGI (UO-31 renal) of the same molecule?
**A.** 11.5 µM

**Q.** And the GI50 (RXF 393 renal)?
**A.** 1750 nM

**Q.** And the TGI (RXF 393 renal)?
**A.** 3.27 µM

**Q.** What about the GI50 (NCI-H23 lung) of the same molecule?
**A.** 1670 nM

**Q.** What about the TGI (NCI-H23 lung) of the same molecule?
**A.** 3.37 µM

**Q.** And the GI50 (HOP-92 NSCLC)?
**A.** 829 nM

**Q.** What about the TGI (HOP-92 NSCLC) of the same molecule?
**A.** 2160 nM

**Q.** What about the GI50 (MALME-3M melanoma) of the same molecule?
**A.** 1800 nM

**Q.** And the TGI (MALME-3M melanoma)?
**A.** 4.04 µM

**Q.** And the GI50 (CCRF-CEM leukemia)?
**A.** 1970 nM

**Q.** What about the TGI (CCRF-CEM leukemia) of the same molecule?
**A.** 5.5 µM

**Q.** And the GI50 (SNB-75 CNS)?
**A.** 1230 nM

**Q.** What about the TGI (SNB-75 CNS) of the same molecule?
**A.** 2560 nM

**Q.** And the GI50 (PC-3 prostate)?
**A.** 1400 nM

**Q.** What about the TGI (PC-3 prostate) of the same molecule?
**A.** 2730 nM

**Q.** And the GI50 (SF-539 CNS)?
**A.** 1630 nM

**Q.** And the TGI (SF-539 CNS)?
**A.** 3.09 µM

**Q.** And the GI50 (HT29 colon)?
**A.** 1560 nM

**Q.** And the TGI (HT29 colon)?
**A.** 3.12 µM

**Q.** What about the GI50 (NCI/ADR-RES ovarian) of the same molecule?
**A.** 14.6 µM

**Q.** What about the TGI (NCI/ADR-RES ovarian) of the same molecule?
**A.** 37.5 µM

**Q.** What about the GI50 (IGROV1 ovarian) of the same molecule?
**A.** 1190 nM

**Q.** And the TGI (IGROV1 ovarian)?
**A.** 2760 nM

**Q.** And the GI50 (HCT-15 colon)?
**A.** 2050 nM

**Q.** And the TGI (HCT-15 colon)?
**A.** 4.83 µM

**Q.** And the GI50 (M14 melanoma)?
**A.** 1690 nM

**Q.** And the TGI (M14 melanoma)?
**A.** 3.29 µM

**Q.** And the GI50 (UACC-62 melanoma)?
**A.** 1770 nM

**Q.** What about the TGI (UACC-62 melanoma) of the same molecule?
**A.** 3.28 µM

**Q.** What about the GI50 (RPMI-8226 leukemia) of the same molecule?
**A.** 1970 nM

**Q.** What about the TGI (RPMI-8226 leukemia) of the same molecule?
**A.** 4.61 µM

**Q.** What about the GI50 (ACHN renal) of the same molecule?
**A.** 2690 nM

**Q.** And the TGI (ACHN renal)?
**A.** 7.84 µM

**Q.** What about the GI50 (TK-10 renal) of the same molecule?
**A.** 1880 nM

**Q.** What about the TGI (TK-10 renal) of the same molecule?
**A.** 4.11 µM
